Values of other authors in patent publication WO2006030898A1, “Aldose reductase inhibitor” (Suntory Ltd, priority 2004, dated 2006).

Molecular target: aldose reductase (Homo sapiens, UniProt P15121)
Settings: flavonoid glycosides; no own test described

SMILES: O=c1c(O[C@@H]2O[C@H](CO)[C@@H](O)[C@H](O)[C@H]2O)c(-c2ccc(O)c(O)c2)oc2cc(O)cc(O)c12 [isoquercitrin]
- aldose reductase inhibitory action (in words): have an aldose reductase inhibitory action
